Source: US4414225A, “Azepine derivatives and their anti-thrombotic compositions and methods” (Dr. Karl Thomae Gesellschaft mit beschrankter Haftung, priority 1981, dated 1983)

Columns and labels:
Acute toxicity = assay type: in vivo; settings: maximum doses used (50 mg/kg per os)
normolipemic rat = assay: Cholesterol-reducing effect: test on the normolipemic rat; assay type: in vivo; settings: 1.1 mg/kg (A) or 20.0 mg/kg (B), by esophageal tube twice with interval of 20 hours, serum after 28 and 44 hours
Experimental: (§1) 1. Cholesterol-reducing effect
(b) Test on the normolipemic rat:
Male normolipemic rats with an average body weights of 250 to 300 gm were given the test compound by esophageal tube twice with an interval of 20 hours. At the start of the test, the animals were deprived of food but had free access to drinking water. The serum cholesterol levels were determined enzymatically (Boehringer Mannheim Test Combination 126.039) after 28 and 44 hours. The percentage reduction was calculated in comparison with a control group: […]

hyperlipemic rat = assay: Cholesterol-reducing effect: test on the hyperlipemic rat; assay type: in vivo; settings: 50 mgm/kg by esophageal tube on two successive days, serum 24 hours after final administration
Experimental: as §1
(a) Test on the hyperlipemic rat: Literatur: P. E. Schurr et al., Atherosclerosis Drug Discovery (1976), published by C. E. Day; Plenum, New York, page 215.
Young male rats with an average body weight of 100 gm were made hypercholesterolemic by feeding them for 4 days on a diet consisting of 10% coconut oil, 1.5% cholesterol, 0.5% cholic acid, 0.2% choline chloride and 15% sucrose. While continuing with the diet, the test compound was administered in a methyl cellulose suspension by esophageal tube on two successive days. The animals were then made to fast overnight and 24 hours after the final administration of the test compound a blood sample was taken in order to obtain serum.
In the serum, the total cholesterol was determined enzymatically (Boehringer Mannheim Test Combination 126 039) and the β-lipoproteinswere determined by nephelometry, after precipitation with Ca^++ and heparin, in the Autoanalyzer. The percentage reduction was calculated by comparison with a control group: […]

[1] = system: thrombocytes of healthy human test subjects; assay: Adenosine-potentiating effect in the Born Test (thrombocyte aggregation); assay type: cell-based; settings: n = 4; for mm height of curve (Born test): control 114
thrombocyte aggregation = assay: Prostacycline-reinforcing effect after oral administration in animals (Born Test on blood sample); assay type: in vivo, rat
Experimental: (§2) (a) The thrombocytes of healthy human test subjects were incubated for 10 minutes at 37° C. with the test substance (final concentration: 1×10^-4 mol/l). Then, aggregation was initiated with collagen in the Born test in the usual way. Shortly before aggregation was initiated, a small quantity of supernatant liquid containing prostacycline, which was obtained from rings of aorta placed in the TRIS buffer, was added to the test sample. The quantity of supernatant liquid containing prostacycline was selected so that on its own it had little or no inhibiting effect. The sample incubated with the substance reacted with PGI2 to give an inhibition of aggregation which was more than additive.
(c) Prostacycline-reinforcing effect after oral administration in animals:
Rats weighing 450 gm were given the compound orally at a dose of 20 mg/kg; then, after one hour, a blood sample was taken and the Born Test was carried out as described above.

[2] = system: thrombocytes of healthy human test subjects; assay: Born test: collagen-induced thrombocyte aggregation, with and without PGI2 (in vitro); assay type: cell-based; settings: n = 4; for inhibition at 100 µM: Homo sapiens; for mm height of curve (Born test): control 129
Experimental: as §2, with “2. Antithrombotic Activity: (a)” for “(a)”

[3] = PRP + compound C alone (1 × 10^-4)
[4] = PRP + compound C (1×10^-4 mol/l) + PGI2, collagen
[5] = PRP + compound C alone, 1×10^-4 mol/l, collagen

## CCCCCCCCCCCCN1CCc2cc(C(=O)[O-])sc2CC1.[Na+]
Acute toxicity
  toxic side effects: no toxic side effects were observed
Normolipemic rat
  Percentage reduction compared with control: Total cholesterol in the serum: -20%
Hyperlipemic rat
  Percentage reduction compared with controls: Cholesterol in the serum: -21%
  Percentage reduction compared with controls: β-lipoproteins in the serum: -51%

## Cl.O=C(O)c1cc2c(s1)CCN(Cc1ccccc1)CC2 [A, 6-Benzyl-5,6,7,8-tetrahydro-4H-thieno[2,3-d]azepine-2-carboxylic acid hydrochloride]
Acute toxicity
  toxic side effects: no toxic side effects were observed
Normolipemic rat
  Percentage reduction compared with control: Total cholesterol in the serum: -26%

## Cl.Clc1ccccc1CN1CCc2ccsc2CC1 [C, 6-(2-Chlorobenzyl)-5,6,7,8-tetrahydro-4H-thieno[2,3-d]azepine hydrochloride]
[1]; PRP + compound C + adenosine
  % inhibition of thrombocyte aggregation: 61%
  mm height of curve (Born test): 44 mm
[1]; [3]
  % inhibition of thrombocyte aggregation: 33%
  mm height of curve (Born test): 75 mm
Thrombocyte aggregation; rats treated with 20 mg/kg per os of compound C, blood sample after one hour, without PGI2, averages from three sets of tests on four animals
  inhibition of aggregation: 4%
Thrombocyte aggregation; rats treated with compound C, 20 mg/kg per os, blood sample after one hour, + PGI2
  inhibition of aggregation: 100%
Acute toxicity
  toxic side effects: no toxic side effects were observed
[2]; [4]
  inhibition at 100 µM: 69%
  mm height of curve (Born test): 38 mm
[2]; [5]
  inhibition at 100 µM: 20.7%
  mm height of curve (Born test): 101 mm

## Nc1ncnc2c1ncn2[C@@H]1O[C@H](CO)[C@@H](O)[C@H]1O [adenosine, reference compound]
[1]; PRP + adenosine alone
  % inhibition of thrombocyte aggregation: 20%
  mm height of curve (Born test): 91 mm

## PGI2 [reference compound]
Thrombocyte aggregation; plasma of control animals + PGI2
  inhibition of aggregation: 20%
[2]; PRP + PGI2 alone, collagen
  % inhibition of thrombocyte aggregation: 30%
  mm height of curve (Born test): 90 mm
